Each block holds one molecule with its values, some of them ahead of it.
Columns and labels:
[1] = tested on: Nnmt expression in 3T3-L1 cells; assay: Nnmt mRNA by real-time PCR in 3T3-L1; type: cell-based, mouse; conditions: post-confluent 3T3-L1 treated 48 h with individual DIM components, vs unstimulated cells
Experimental: 3T3-L1 Mouse Embryonic Fibroblasts were purchased from American Type Culture Collection (ATCC CL-173). The cells were propagated and maintained in Dulbecco’s modified Eagle’s medium (DMEM, Gibco) supplemented with 10% calf serum (FCS) at 37 °C in 5% CO2 atmosphere. Subconfluents cells were expanded and utilized for the subsequent experiments at the passages 3–6. To induce differentiation, 2-day post-confluent 3T3-L1 pre-adipocytes were cultured for 48 h with DIM (DMEM supplemented with 10% fetal bovine serum (FBS), 1.0 µM Dexamethasone (G. Biosciences), […] Insulin (Sigma) and 0.5 mM IBMX (Sigma). Two days after induction the DIM medium was removed and the cells were maintained in DMED supplemented with 10% FBS and […] Insulin, which was replaced every 48 h, until the cells became fully differentiated (8–10 days after induction). C3H10T1/2 cells were purchased from American Type Culture Collection (ATCC, clone 8, CCL-226, were grown and induced to differentiate following the same protocol, with cell cultures < 3 passages. […] Real-time PCRs were performed using SYBR Green PCR Master Mix (Applied Biosystems) with an ABI PRISM 7900HT Sequence Detection System (Applied Biosystems). RT-PCR data were normalized to GAPDH and expressed relative to control (ddCt method).

DNMT3a = molecular target: T1, DNMT3a (Homo sapiens, UniProt Q9Y6K1); assay: Methyltransferase Hot Spot radioisotope assay, DNMT3a; type: biochemical
T1 construct: purchased Reaction Biology Corporation
Experimental: (§1) CC-410 was screened in biochemical assays for activity against a panel of 11 methyltransferases (MT) by using the radioisotope (3H-AdoMet) based MT Hot Spot Assay. All the assays were performed by Reaction Biology Corporation (RBC, Malven, PA, USA). Briefly CC-410 was incubated with the selected MTs, corresponding substrates, and radiolabeled SAM (S-Adenosyl-L-[methyl-3 H]methionine). The specific MTs assessed, and the corresponding substrates are as follows: DNMT1- Poly dl-dC, DNMT3a- Lambda DNA, DNMT3b- Lambda DNA, DOT1L- Nucleosomes, EZH2 Complex- Core Histone, METTL21A- HSPA8-[CTD], NRMT1- RCC1, PRMT3- Histone H4, PRMT5/MEP50- Histone H2A, SET1b -Core Histone Complex and SMYD2- Nucleosomes. Reaction mixtures were incubated and spotted onto filter papers, which were then washed to remove unreacted SAM, leaving the bound radiolabeled product. Detection of the radiolabeled, methylated product was performed via a nanoliter-scale radioisotope filter binding platform. […] For each assay, control compounds were included as positive controls for enzyme function and assay reproducibility. […] IC50 was calculated by non-linear least square fitting dose–response curve.

METTL21A = METTL21A (Homo sapiens, UniProt Q8WXB1); assay: Methyltransferase Hot Spot radioisotope assay, METTL21A; type: biochemical; conditions: 10-dose, threefold dilution; CC-410 from 300 μM, control from 100 μM; substrate HSPA8-[CTD]
Experimental: as §1, with “The specific MTs assessed, and the corresponding substrates are as follows: DNMT1- Poly dl-dC, DNMT3a- Lambda DNA, DNMT3b- Lambda DNA, DOT1L- Nucleosomes, EZH2 Complex- Core Histone, METTL21A- HSPA8-[CTD], NRMT1- RCC1, PRMT3- Histone H4, PRMT5/MEP50- Histone H2A, SET1b -Core Histone Complex and SMYD2- Nucleosomes.” left out

SET1b Complex = molecular target: T2, SET1b Complex (Homo sapiens, UniProt Q9UPS6); assay: Methyltransferase Hot Spot radioisotope assay, SET1b Complex; type: biochemical; conditions: 10-dose, threefold dilution; CC-410 from 300 μM, control from 100 μM; substrate Core Histone; read-out: IC50* (M) SET1b Complex
T2 construct: purchased Reaction Biology Corporation
Experimental: as §1

NRMT1 = molecular target: T3, NRMT1 (Homo sapiens, UniProt Q9BV86); assay: Methyltransferase Hot Spot radioisotope assay, NRMT1; type: biochemical; conditions: 10-dose, threefold dilution; CC-410 from 300 μM, control from 100 μM; substrate RCC1
T3 sequence (Q9BV86 1-223): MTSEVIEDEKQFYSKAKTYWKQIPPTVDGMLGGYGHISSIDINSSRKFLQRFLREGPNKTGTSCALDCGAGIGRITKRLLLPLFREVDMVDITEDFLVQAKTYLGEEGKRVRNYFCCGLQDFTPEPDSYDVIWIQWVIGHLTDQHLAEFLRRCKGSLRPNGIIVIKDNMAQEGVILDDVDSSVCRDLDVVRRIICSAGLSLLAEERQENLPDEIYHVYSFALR
Experimental: as §1

PRMT3 = PRMT3 (Homo sapiens, UniProt O60678); assay: Methyltransferase Hot Spot radioisotope assay, PRMT3; type: biochemical; conditions: 10-dose, threefold dilution; CC-410 from 300 μM, control from 100 μM; substrate Histone H4; read-out: IC50* (M) PRMT3
Experimental: as §1, with “The specific MTs assessed, and the corresponding substrates are as follows: DNMT1- Poly dl-dC, DNMT3a- Lambda DNA, DNMT3b- Lambda DNA, DOT1L- Nucleosomes, EZH2 Complex- Core Histone, METTL21A- HSPA8-[CTD], NRMT1- RCC1, PRMT3- Histone H4, PRMT5/MEP50- Histone H2A, SET1b -Core Histone Complex and SMYD2- Nucleosomes.” left out

DNMT3b = molecular target: T4, DNMT3b (Homo sapiens, UniProt Q9UBC3); assay: Methyltransferase Hot Spot radioisotope assay, DNMT3b; type: biochemical
T4 construct: purchased Reaction Biology Corporation
Experimental: as §1

Sequence of METTL21A (Q8WXB1 whole entry, species assumed): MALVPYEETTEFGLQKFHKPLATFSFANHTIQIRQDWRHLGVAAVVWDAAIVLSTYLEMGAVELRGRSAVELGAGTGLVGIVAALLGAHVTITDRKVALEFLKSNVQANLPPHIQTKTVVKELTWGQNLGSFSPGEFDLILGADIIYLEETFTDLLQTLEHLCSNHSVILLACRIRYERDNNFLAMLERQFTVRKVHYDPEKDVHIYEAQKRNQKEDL
Sequence of PRMT3 (O60678 whole entry, species assumed): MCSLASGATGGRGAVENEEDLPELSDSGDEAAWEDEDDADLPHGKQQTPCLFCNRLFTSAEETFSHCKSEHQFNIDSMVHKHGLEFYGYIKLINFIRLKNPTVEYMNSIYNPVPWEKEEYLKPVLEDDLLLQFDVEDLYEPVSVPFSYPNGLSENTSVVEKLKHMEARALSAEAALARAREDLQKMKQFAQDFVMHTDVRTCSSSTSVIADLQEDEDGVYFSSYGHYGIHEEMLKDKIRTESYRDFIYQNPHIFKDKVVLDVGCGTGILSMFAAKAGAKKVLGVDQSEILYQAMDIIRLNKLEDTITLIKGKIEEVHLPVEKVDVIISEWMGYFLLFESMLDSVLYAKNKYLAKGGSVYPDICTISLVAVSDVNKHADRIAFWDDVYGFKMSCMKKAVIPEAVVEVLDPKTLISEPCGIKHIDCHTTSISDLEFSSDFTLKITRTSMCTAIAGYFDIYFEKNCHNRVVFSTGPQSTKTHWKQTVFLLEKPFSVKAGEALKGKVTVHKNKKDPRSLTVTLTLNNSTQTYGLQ
T1 sequence (Q9Y6K1 whole entry, looked up, species assumed): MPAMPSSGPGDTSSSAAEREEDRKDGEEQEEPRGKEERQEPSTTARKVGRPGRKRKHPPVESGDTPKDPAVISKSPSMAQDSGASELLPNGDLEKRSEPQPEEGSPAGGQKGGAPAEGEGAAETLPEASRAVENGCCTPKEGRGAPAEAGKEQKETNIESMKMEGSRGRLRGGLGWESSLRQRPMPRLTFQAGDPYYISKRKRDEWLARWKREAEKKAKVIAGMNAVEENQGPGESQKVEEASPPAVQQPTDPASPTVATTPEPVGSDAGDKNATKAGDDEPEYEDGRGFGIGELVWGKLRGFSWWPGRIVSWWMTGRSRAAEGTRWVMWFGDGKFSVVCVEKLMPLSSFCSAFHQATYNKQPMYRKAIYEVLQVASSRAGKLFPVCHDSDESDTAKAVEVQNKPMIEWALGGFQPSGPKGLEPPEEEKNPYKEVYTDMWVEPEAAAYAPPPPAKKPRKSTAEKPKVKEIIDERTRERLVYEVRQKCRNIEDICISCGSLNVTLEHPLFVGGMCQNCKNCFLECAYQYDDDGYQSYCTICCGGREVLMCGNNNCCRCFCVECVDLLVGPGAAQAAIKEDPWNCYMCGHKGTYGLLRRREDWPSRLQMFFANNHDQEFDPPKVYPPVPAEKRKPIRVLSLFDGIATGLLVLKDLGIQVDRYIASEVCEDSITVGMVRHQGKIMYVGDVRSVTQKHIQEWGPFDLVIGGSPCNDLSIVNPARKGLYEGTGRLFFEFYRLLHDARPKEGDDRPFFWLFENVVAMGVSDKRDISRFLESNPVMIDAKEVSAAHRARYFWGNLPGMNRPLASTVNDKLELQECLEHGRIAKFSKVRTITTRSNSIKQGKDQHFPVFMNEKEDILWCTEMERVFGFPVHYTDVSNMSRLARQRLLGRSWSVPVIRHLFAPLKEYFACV

Molecule: C[C@@H]1C[C@H]2[C@@H]3CCC4=CC(=O)C=C[C@]4(C)[C@@]3(F)[C@@H](O)C[C@]2(C)[C@@]1(O)C(=O)CO [DEX, dexamethasone]
Nnmt expression (mRNA, RT-PCR) [1]: induction comparable with that of the whole cocktail

Molecule: CC(C)Cn1c(=O)n(C)c(=O)c2[nH]cnc21 [IBMX, 3-isobutyl-1-methylxanthine]
Nnmt expression (mRNA, RT-PCR) [1]: neither insulin nor IBMX impacted Nnmt expression significantly

IC50 (DNMT3a): 0.511 µM | IC50 (METTL21A): 76.1 µM | IC50 (SET1b Complex): 2e-05 M | IC50 (NRMT1): 1.68 µM | IC50 (PRMT3): 3.88e-06 M | IC50 (DNMT3b): 0.259 µM
Molecule: Nc1ncnc2c1ncn2[C@@H]1O[C@H](CSCC[C@H](N)C(=O)O)[C@@H](O)[C@H]1O [SAH, S-(5′-Adenosyl)-L-homocysteine, reference compound]

Molecule: insulin: component of the differentiation-inducing medium (DIM)
Nnmt expression (mRNA, RT-PCR) [1]: neither insulin nor IBMX impacted Nnmt expression significantly

Source: article PMC10202359, “Nicotinamide N-methyltransferase (NNMT) regulates the glucocorticoid signaling pathway during the early phase of adipogenesis” (Scientific Reports, 2023)
